Experiments:
human P2X7 receptors = biological target: T1, human P2X7 receptors (Homo sapiens, UniProt Q99572); experiment: P2X7 FLIPR assay; assay type: cell-based; conditions: Human P2X7 in HEK293 cells, BzATP 8 μM, Ca2+ mobilization
T1 construct: expressed in transfected cells; host or cells: HEK293
T1 sequence (Q99572 1-595): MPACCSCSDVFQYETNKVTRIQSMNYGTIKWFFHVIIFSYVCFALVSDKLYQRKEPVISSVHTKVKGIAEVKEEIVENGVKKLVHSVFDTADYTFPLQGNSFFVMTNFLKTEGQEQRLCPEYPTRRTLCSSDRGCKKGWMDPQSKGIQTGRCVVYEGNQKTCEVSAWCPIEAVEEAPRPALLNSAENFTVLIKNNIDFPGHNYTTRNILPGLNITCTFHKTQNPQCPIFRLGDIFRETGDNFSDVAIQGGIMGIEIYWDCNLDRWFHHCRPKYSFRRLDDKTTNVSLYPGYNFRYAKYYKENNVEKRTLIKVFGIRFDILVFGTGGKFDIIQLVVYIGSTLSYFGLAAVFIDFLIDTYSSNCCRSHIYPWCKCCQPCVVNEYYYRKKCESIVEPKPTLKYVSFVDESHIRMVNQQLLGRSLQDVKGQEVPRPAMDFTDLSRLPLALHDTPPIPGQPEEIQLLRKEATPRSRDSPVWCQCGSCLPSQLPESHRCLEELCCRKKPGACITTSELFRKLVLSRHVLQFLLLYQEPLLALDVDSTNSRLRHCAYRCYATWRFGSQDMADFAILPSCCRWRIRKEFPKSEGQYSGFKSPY
Procedure: HEK293 cells stably expressing either human, mouse, or rat P2X7 receptors were plated in 384-well poly-D-lysine-coated black FLIPR plates (Greiner One, Cat #781946) using 1.5% FBS media 24 hours before the assay. Sucrose buffer, pH 7.4 was used for the human-P2X7 assay (5 mM of potassium chloride, 9.6 mM NaH2PO4.2H2O, 25 mM Hepes, 0.5 mM CaCl2, 5 mM glucose, 280 mM sucrose and 1.0 mM probenecid (Sigma, St. Louis, Mo.)). Hank's balanced salt solution buffer, pH 7.4 was used for the rat-P2X7 assay (1×HBSS buffer supplemented with 20 mM Hepes plus 2.5 mM probenecid (Sigma, St. Louis, Mo.) and 0.05% bovine serum albumin After removing the media, the plates were loaded with 30 μL of Fluo-4 NW (Molecular Probes, F36206), and were incubated at 37° C. for 30 min in a humidified chamber (5% CO2/95% air), and for 30 min at RT. Mobilization of intracellular Ca^+2 in response to different ligands was measured online using the FLIPR Tetra reader. In the assay, baseline fluorescence was measured for 15 seconds, then 15 μL of 4× compounds (40 μM) was added, fluorescence was monitored for 3 min for agonist activity, 15 μL of 4×BzATP (hP2X7 1×8 μM, rP2X7 1×15 μM) was added and after a 30 min incubation at room temperature the fluorescence was read for 3 min for IC50 determination.

SNI rats = experiment: SNI model of neuropathic pain (von Frey mechanical allodynia); assay type: in vivo, rat; conditions: for reversal of mechanical hypersensitivity: SNI rats 3-4 weeks post injury
Procedure: (§1) Male Sprague Dawley rats (Charles River, Germany) weighing 250-300 g on the day of gabapentin administration were used (n=8-10 per group). The animals were housed in Macrolon III cages (20×14×18 cm or 20×40×18 cm; in groups of 3-5 per cage according to weight) containing wood-chip bedding material (3×1×4 mm) in an air-conditioned building with controlled environmental parameters (relative humidity 55±15%, temperature 20±2° C., and light from 06.00 to 19.00 h). Food and water were available ad libitum. The rats were allowed to habituate to the housing facilities for at least one week prior to being assigned to behavioral experiments whereupon they were randomly distributed across treatment groups. All experiments were performed according to the Ethical Guidelines of the International Association for the Study of Pain and the Danish Committee for Experiments on Animals.
A spared nerve injury (SNI) was performed in rats (body weight 180-220 g at the time of surgery) as described previously [Decosterd, I. and C. J. Woolf, Pain, 2000. 87(2): p. 149-581. Anaesthesia was induced and maintained by 2% isoflurane (Baxter A/S, Alleroed, Denmark), combined with oxygen (30%) and nitrous oxide (68%). Next, the skin of the lateral left thigh was incised and the cranial and caudal parts of the biceps femoris muscle were separated and held apart by a retractor to expose the sciatic nerve and its three terminal branches: the sural, common peroneal and tibial nerves. The tibial and common peroneal nerves were tightly ligated with 4/0 silk and 2-3 mm of the nerve distal to the ligation was removed. Any stretching or contact with the intact sural nerve was avoided. […] The presence of mechanical allodynia was assessed using a series of calibrated von Frey hairs (lower limit=0.06 and upper limit=13.5 g, Stoelting Co, Wood Dale Ill.), which were applied to the lateral aspect of the plantar surface of the hindpaw with increasing force until an individual filament used just started to bend. […]

CCI animals = experiment: Chronic constrictive injury (CCI) model of neuropathic pain (von Frey PWT); assay type: in vivo, rat; conditions: 100 mg/kg, PWT 120 minutes following administration, p<0.05
Procedure: Male Sprague Dawley rats (Harlan) were used in the study. Upon receipt, rats were group housed with 2-3 per cage in standard cages. Rats were allowed to acclimate for up to 1 week prior to surgery. All rats were examined and weighed prior to initiation of the study to assure adequate health and suitability. During the course of the study, 12/12 light/dark cycles were maintained. The room temperature was maintained between 20° C. and 23° C. with a relative humidity maintained around 50%. Chow and water were provided ad libitum for the duration of the study. All testing was performed during the animals' light cycle phase. Rats were single housed after surgery.
This surgery was performed according to Bennett and Xie (1988). […] Each rat was monitored until awake and moving freely around the recovery chamber. […]
Paw withdrawal from a mechanical stimulus was measured by applying von Frey filaments of ascending bending force to the plantar surface of the hind paws (ipsilateral and contralateral). Baseline and post-treatment withdrawal threshold values for non-noxious mechanical sensitivity were evaluated using von Frey filaments (Semmes-Weinstein filaments, Stoelting, Wood Dale, Ill., USA) of varying stiffness (0.4, 0.7, 1.2, 2.0, 3.6, 5.5, 8.5, 10, 15, 26 g). […]
Data were analyzed by Analysis of variance (ANOVA), followed by post-hoc comparisons when appropriate. […]

CFA inflamed rats = experiment: CFA-induced inflammatory hyperalgesia (paw pressure threshold); assay type: in vivo, rat
Procedure: as §1
Individual rats received a subcutaneous injection of CFA (50% in saline, 100 μl total volume, Sigma Aldrich) into the plantar surface of the hindpaw. All rats were then immediately returned to their homecage. The day prior to this (pre-CFA baseline response), and then again 24 h post CFA injection (post-CFA baseline response), hindpaw paw pressure thresholds were measured to obtain an index of evoked mechanical hyperalgesia [Ref: Munro, G., et al., Neuropharmacology, 2011. 61(1-2): p. 121-132.1. To do this, the investigator gently restrained the rat prior to the application of progressively increasing mechanical pressure to the mid hindpaw region using an electronic version of the Randall-Selitto device (HTC, U.S.A.) The point at which the rat attempted to make a reflex hindpaw withdrawal which in some instances was followed by vocalization was recorded as the paw pressure threshold (g). […] Thereafter, CFA inflamed rats received oral administration of (S)-N-(2-(4-chlorophenyl)-2-morpholinoethyl)-2-(pyrimidin-2-yl)-4-(trifluoromethyl)thiazole-5-carboxamide or vehicle with the investigator blinded to treatment and the paw pressure threshold measured again 60 minutes later.

`O=C(NCC(c1ccc(Cl)cc1)N1CCOCC1)c1sc(-c2ncccn2)nc1C(F)(F)F` (racemic) [Compound (III), (±)-N-(2-(4-chlorophenyl)-2-morpholinoethyl)-2-(pyrimidin-2-yl)-4-(trifluoromethyl)thiazole-5-carboxamide] gave an IC50 (human P2X7 receptors) of 32 ± 13 nM.
`O=C(NC[C@H](c1ccc(Cl)cc1)N1CCOCC1)c1sc(-c2ncccn2)nc1C(F)(F)F` [Compound (I), (S)-N-(2-(4-chlorophenyl)-2-morpholinoethyl)-2-(pyrimidin-2-yl)-4-(trifluoromethyl)thiazole-5-carboxamide] was tested, and the IC50 (human P2X7 receptors) was 12 ± 10 nM, the “reversal of mechanical hypersensitivity” value (SNI rats; 30 and 100 mg/kg tested, dose of this value not stated) was 108 % reversal and the “effect on mechanical hypersensitivity” value (SNI rats; 30 and 100 mg/kg, F(3.47)=12.522, P<0.001) was “dose dependently reversed”. For the same compound, the “PWT compared to vehicle treatment” value (CCI animals) was “significantly increased”, the “reversal of mechanical hyperalgesia” value (CFA inflamed rats; 30 mg/kg dose, oral, paw pressure threshold 60 minutes later, 24 h post CFA) was 62 % reversal and the “effect on mechanical hyperalgesia” value (CFA inflamed rats; oral, F(4.49)=30.692, P<0.001) was “significantly reversed”.
`O=C(NC[C@@H](c1ccc(Cl)cc1)N1CCOCC1)c1sc(-c2ncccn2)nc1C(F)(F)F` [Compound (II), (R)-N-(2-(4-chlorophenyl)-2-morpholinoethyl)-2-(pyrimidin-2-yl)-4-(trifluoromethyl)thiazole-5-carboxamide] gave an IC50 (human P2X7 receptors) of 89 ± 13 nM.
In the case of `O=C(O)Cc1ccccc1Nc1c(Cl)cccc1Cl` [diclofenac, reference compound], the “reversal of mechanical hyperalgesia” value (CFA inflamed rats; NSAID comparator, dose not given) is reported as 84 % reversal.
In the case of `NCC1(CC(=O)O)CCCCC1` [gabapentin, reference compound], the “reversal of mechanical hypersensitivity” value (SNI rats; 100 mg/kg dose) is reported as 132 % reversal and the “PWT compared to vehicle treatment” value (CCI animals) is reported as “significantly increased”.
